Test results from patent US9421193B2, “Benzothiazole derivatives and a use thereof for the treatment of cancer” (Korea Institute of Radiological & Medical Sciences, priority 2014, dated 2016).

Key:
[1] = tested on: non-small cell lung cancer cell strain H460; test: Apoptosis ratio, Annexin V flow cytometry; type: cell-based, human; details: about 40 hours, 50 μM PB01, 50 μM PB11, 150 μM PB12, FIGS. 9A and 9B
Procedure: About 5×10^5 cells per well of each of the non-small cell lung cancer cell strains A549 and H460 were portioned into a 6-well plate and then incubated with the compounds PB01 or PB11 for about 40 hours in the same manner as described above. A cell layer was washed with PBS and then treated with trypsin-EDTA solution to isolate cells. The isolated cells were collected and stained with an Annexin V Flous Staining kit (available Roche Applied Science, Penzberg, Germany) in a dark condition for about 30 minutes. The stained cells were analyzed by flow cytometry using a FACScan™ (available from Becton Dicknson) to count the number of dead cells and then calculate an apoptosis ratio. The same experiment was performed with 50 μM of PB01, 50 μM of PB11, or 150 μM of PB12 in the same manner as described above. The graphs of cell viability with respect to compound concentration and incubation time obtained based on the experimental results are shown in FIGS. 9A and 9B.

[2] = tested on: non-small cell lung cancer cell strain H460; test: Trypan blue live cell count (cell viability); type: cell-based, human; details: FIGS. 3A and 3B, PB12 at 150 μM
Procedure: Whether the cancer cell growth inhibitory effects of the compounds PB01 and PB11 on the non-small cell lung cancer cell strains is associated with apoptosis was investigated. The cell growth inhibitory effects were evaluated by a trypan blue assay, and cell shapes were observed using an inverted microscope. The shapes of cell nuclei were observed via Hoeschst 33342 staining. Degrees of inducing apoptosis were quantized by flow cytometry (fluorescent activated cell sorting (FACS)).
After about 5×10^3 cells per well of each of the human non-small cell lung cancer cell strains A549 and H460 were portioned into a 96-well plate, about 10 uM to about 50 uM of the compounds PB01 or PB11 in 200 ul of culture solution were added into the wells, and incubated for about 8 to 72 hours. Cells were collected from the incubation product, and centrifuged at about 2,000 rpm for 5 minutes. After removing a supernatant, the remaining cells were mixed with 1 mL of phosphate-buffered saline (PBS) to obtain a cell suspension, which was then mixed with an equal amount of 0.5% trypan blue (Gibco BRL), followed by treatment for about 1 minute. The number of live cells was counted using a phase-contrast) microscope. The live cell counting was repeated three times, and an average live cell count and a standard error were calculated using a Microsoft Excel program. Cell viability graphs with respect to compound concentration and incubation time were obtained. The same experiment was performed with 50 μM of the compound PB01, PB11 50 μM of the compound PB11, or 150 μM of the compound PB12 150 μM, and cell viability graphs with respect to compound concentration and incubation time were obtained.

Cc1noc(C)c1CSc1nc2ccc(NC(=O)C3CCC(O)CC3)cc2s1 (centres unmarked) [PB12]
apoptosis induction (Annexin V) [1]: kill the non-small cell lung cancer cells by inducing apoptosis
cancer cell apoptosis effect with respect to concentration and incubation time [2]: improved cancer cell apoptosis effects with increases in concentration and incubation time
